Measured values from article PMC6425379, “Pharmacokinetic Study and Tissue Distribution of Lorlatinib in Mouse Serum and Tissue Samples by Liquid Chromatography-Mass Spectrometry” (Journal of Analytical Methods in Chemistry, 2019).
Read-outs that look alike come from different tables or passages of the source.

Assays:
[1] = Pharmacokinetic study of lorlatinib in mouse serum after oral administration (LC-MS/MS, noncompartmental model); type: in vivo, Kun Ming mice; details: mice, 10 mg/kg
Experimental: (§1) All the animal-related experiments were performed in accordance with guidelines of Institutional Experimental Animal Ethical Committee. Kun Ming mice (18–20 g) were obtained from the Beijing HFK Bioscience Co., Ltd. (Beijing, China). All mice were given free access to normal diet and water during the experiment with an exception that mice were fasted for 12 h prior to drug administration.
In order to make all serum samples fall within the range suitable for testing, 10 μL of serum sample was diluted to 100 μL with blank serum. The diluted serum sample was evenly mixed using vortex-mixing. A mixture sample was prepared by adding 200 μL of IS working solution (10 ng/mL) to 20 μL of diluted serum sample, and the mixture was vortex-mixed for 3 min. In order to extract lorlatinib, the supernatant was obtained by centrifugation (11,000 rpm, 15 min, 4°C). Then, 100 μL of supernatant was diluted to 200 μL with purified water, and the mixture was immediately vortex-mixed for 3 min.
(§2) The mice were orally administered with 10 mg/kg lorlatinib. Blood and tissue samples were collected from mice at 0.5, 1, 2, 4, 8, and 24 h after administration. The blood samples were transferred into glass containers and clotted at room temperature for 1 h. Once the clot was formed, blood sample was centrifuged at 4,000 rpm for 10 min, and supernatant was collected. The serum was transferred into another tube and stored at −80°C prior to further analysis. Tissue samples were rinsed by physiological saline, and then excess physiological saline was blotted up. The tissue samples were transferred into PP plastic bags and stored at −80°C until further detection.
(§3) The pharmacokinetic parameters of lorlatinib were estimated with noncompartment model by DAS (Data Analysis System) software (version 3.0, BioGuider Co., Shanghai, China). Moment analysis was used as a noncompartmental approach to obtain various pharmacokinetic parameters. Noncompartmental approach allowed the estimation of pharmacokinetic parameters without assuming any structural properties of the pharmacokinetic behavior of lorlatinib. The area under the curve (AUC) and the first moment curve (AUMC) were calculated by using the linear trapezoidal method, which is required by FDA. The half-life (t1/2) was estimated as MRT multiplied by 0.693. Cmax was defined as maximal concentration, and Tmax was defined as the time at which the Cmax was observed. The tissue distribution was described by quantifying lorlatinib in various tissues at 0.5, 1, 2, 4, 8, and 24 h after administration. All data were summarized to calculate means and standard deviations, and then the concentration-time curve was plotted.

[2] = Tissue distribution of lorlatinib in mice after oral administration (LC-MS/MS); type: in vivo, Kun Ming mice; details: 10 mg/kg; for concentration at 0.5 h: Kun Ming, mouse
Experimental: as §1
Tissue samples were weighed, and methanol was added to tissue samples at a ratio of methanol: tissue = 2 mL: 100 mg. Subsequently, tissue samples were homogenized using a high-throughput tissue homogenizer and vortex-mixed for 3 min. Supernatant was obtained by centrifuging at 11,000 rpm for 15 min. Then, 400 μL of 40 ng/mL IS solution was added to 100 μL supernatant. After vortex-mixing, supernatant was isolated by centrifugation.
as §2, §3

concentration at 24 h ([1]; Kun Ming, mouse, 24 h after administration): 20.9 ± 1.07 ng/mL | Cmax ([1]; Kun Ming, mouse, n=8, mean): 2710 ng/mL | Tmax ([1]; Kun Ming, mouse, n=8, mean): 0.625 h | half-life ([1]; Kun Ming, mouse, n=8, mean, read-out: t1/2z (converted)): 3.26 h | maximal serum concentration ([1]; mean ± SD): 2,705.683 ± 539.779 μg/L | AUC(0–∞) ([1]; n=8, mean): 16208.177 ug/L ∗ h | AUMC(0–∞) ([1]; n=8, mean): 78840.738 h ∗ h ∗ ug/L | time at which the maximum concentration appeared in each tissue ([2]; each tissue): 0.5 h | concentration at 0.5 h ([2]; brain, read-out: concentration in brain): 1850 ng/g | concentration at 0.5 h ([2]; heart, read-out: concentration in heart): 3670 ng/g | concentration at 0.5 h ([2]; kidney, read-out: concentration in kidney): 5490 ng/g | concentration at 0.5 h ([2]; large intestine, read-out: concentration in large intestine): 2900 ng/g | concentration at 0.5 h ([2]; liver, read-out: concentration in liver): 31500 ng/g | concentration at 0.5 h ([2]; lung, read-out: concentration in lung): 3090 ng/g | concentration at 0.5 h ([2]; small intestine, read-out: concentration in small intestine): 5410 ng/g | concentration at 0.5 h ([2]; spleen, read-out: concentration in spleen): 2470 ng/g | concentration at 0.5 h ([2]; stomach, read-out: concentration in stomach): 21600 ng/g
Compound: C[C@H]1Oc2cc(cnc2N)-c2c(nn(C)c2C#N)CN(C)C(=O)c2ccc(F)cc21 [Lorlatinib]
